Assay results from US9284283B2, “Macrocyclic compounds for modulating IL-17” (ENSEMBLE THERAPEUTICS CORPORATION, priority 2012, dated 2016).

Target: T1, recombinant human IL17a (binding to its receptor IL17R) (Homo sapiens, UniProt Q16552)
T1 construct: purchased R&D Systems 317-ILB (IL17a); 177-IR (IL17R/Fc)
T1 sequence (Q16552 20-155 limits assumed): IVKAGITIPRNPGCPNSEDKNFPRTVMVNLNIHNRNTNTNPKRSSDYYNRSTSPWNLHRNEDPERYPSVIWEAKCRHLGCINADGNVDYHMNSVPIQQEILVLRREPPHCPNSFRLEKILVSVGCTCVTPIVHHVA
Assay: IL-17 competition ELISA I (IL17a coated, IL17R/Fc binding)
Method: ELISA I: The ability of the compounds to block binding of IL17a to its receptor, IL17R, was analyzed in a competition ELISA format. High binding 96-well plates (Costar #9018) were coated with 20 nM of recombinant human IL17a (R&D Systems #317-ILB) in PBS (0.64 μg/mL), 100 μL/well, for 30 min at 37′C followed by 5 min at 4′C. Plates were then washed in PBST (PBS/0.05% Tween-20) on a plate washer, (Biotech EL-450) blocked with protein-free blocking buffer (Thermo Scientific #37573) in 250 μL/well for 30 min on shaker at room temperature, and then washed again. Compound dilutions prepared in PBST were added into the wells in duplicates followed by the addition of IL17R/Fc (R&D Systems #177-IR) at a final concentration of 12 nM. Plates were then incubated for 30 min at room temperature on the shaker. Wells with no compound served as a positive “no competitor” control, while wells with no IL17R/Fc and no compound served as a blank negative control. After an additional PBST wash, 50 ng/mL HRP-conjugated goat anti-human Fc IgG (KPL #04-10-20) was added to the plate for 30 min at room temperature, followed by PBST wash and addition of SureBlue™ TMB (KPL #52-00-03). After the sufficient color development, the reaction was fixed by the addition of 100 μL/well 0.5 N HCl and absorbance was measured at 450 nm on Biotek plate reader.
Data were processed using BioAssay Enterprise v10.1.4 (CambridgeSoft) software. Linear OD λ450 were plotted against log concentration (x) and fitted to a 4-parameter logistic equation. IC50 was calculated using positive ‘no competitor’ control data as an upper limit and blank control as a lower limit in each assay.

Row | Structure (SMILES) | IC50
1 | O=C1CNC(=O)[C@@H](Cc2ccc(NC(=O)[C@H](Cc3ccccc3Cl)NC(=O)c3ccc(F)cc3O)cc2)NC(=O)CC2(CCCC2)CC(=O)NCCCCCN1 [Compound 278] | 1 to 10 µM
2 | CC1(C)CC(=O)NCCCCCNC(=O)CNC(=O)[C@@H](Cc2ccc(NC(=O)[C@H](Cc3cccs3)NC(=O)Cc3ccccc3)cc2)NC(=O)C1 [Compound 255] | 1 to 10 µM
3 | C[C@@H]1NC(=O)[C@@H](Cc2ccc(NC(=O)[C@H](Cc3ccccc3Cl)NC(=O)Cc3ccccc3)cc2)NC(=O)CC2(CCCC2)CC(=O)NCCCCCNC1=O [Compound 290] | 0.1 to 1 µM
4 | O=C1CC2(CCCC2)CC(=O)N[C@H](Cc2ccc(NC(=O)[C@H](Cc3ccccc3Cl)NC(=O)c3ccc(F)cc3)cc2)C(=O)N[C@@H](Cc2ccccc2)C(=O)NCCCCCN1 [Compound 309] | 0.1 to 1 µM
5 | C[C@@H]1C(=O)NCCCCCNC(=O)CC2(CCCC2)CC(=O)N[C@H](Cc2ccc(NC(=O)[C@H](Cc3ccccc3Cl)NC(=O)Cc3ccccc3)cc2)C(=O)N1C [Compound 289] | 1 to 10 µM
6 | O=C1CC2(CCCC2)CC(=O)N[C@H](Cc2ccc(NC(=O)[C@@H](NC(=O)Cc3ccccc3)C3CCCCC3)cc2)C(=O)N[C@H](Cc2ccccc2)C(=O)NCCCCCN1 [Compound 331] | 0.1 to 1 µM
7 | O=C1CNC(=O)[C@@H](Cc2ccc(NC(=O)[C@H](Cc3ccccc3Cl)NC(=O)CN3CCCC3)cc2)NC(=O)CC2(CCCC2)CC(=O)NCCCCCN1 [Compound 301] | 1 to 10 µM
8 | C[C@H]1C(=O)NCCCCCNC(=O)CC2(CCCC2)CC(=O)N[C@H](Cc2ccc(NC(=O)[C@H](Cc3ccccc3Cl)NC(=O)Cc3ccccc3)cc2)C(=O)N1C [Compound 291] | 1 to 10 µM
9 | O=C1CNC(=O)[C@@H](Cc2ccc(NC(=O)[C@H](Cc3ccc(F)cc3Cl)NC(=O)c3ccc(F)cc3)cc2)NC(=O)CC2(CCCC2)CC(=O)NCCOCCN1 [Compound 324] | 0.1 to 1 µM
10 | O=C1CNC(=O)[C@@H](Cc2ccc(NC(=O)[C@H](Cc3ccccc3Cl)NC(=O)c3ccc(O)c(F)c3)cc2)NC(=O)CC2(CCCC2)CC(=O)NCCCCCN1 [Compound 277] | 0.1 to 1 µM
11 | CN1CCCCCNC(=O)CNC(=O)[C@@H](Cc2ccc(NC(=O)[C@H](Cc3ccccc3Cl)NC(=O)c3ccc(F)cc3)cc2)NC(=O)CC2(CCCC2)CC1=O [Compound 306] | 0.1 to 1 µM
12 | O=C1CNC(=O)[C@@H](Cc2ccc(NC(=O)[C@H](Cc3ccccc3Cl)NC(=O)c3ncco3)cc2)NC(=O)CC2(CCCC2)CC(=O)NCCCCCN1 [Compound 235] | 0.1 to 1 µM
13 | O=C1CNC(=O)[C@@H](Cc2ccc(NC(=O)[C@H](NC(=O)Cc3ccccc3)C3CCCCC3)cc2)NC(=O)CC2(CCCC2)CC(=O)NCCCCCN1 [Compound 315] | 1 to 10 µM
14 | O=C1CNC(=O)[C@@H](Cc2ccc(NC(=O)[C@H](Cc3ccccc3Cl)NS(=O)(=O)c3ccccc3)cc2)NC(=O)CC2(CCCC2)CC(=O)NCCCCCN1 [Compound 271] | 1 to 10 µM
15 | CC1(C)CC(=O)NCCCCCNC(=O)CNC(=O)[C@@H](Cc2ccc(NC(=O)[C@H](Cc3cccs3)NC(=O)c3cccnc3)cc2)NC(=O)C1 [Compound 258] | 1 to 10 µM
16 | CC1(C)CC(=O)NCCCCCNC(=O)CNC(=O)[C@@H](Cc2ccc(NC(=O)[C@H](CC3CC3)NC(=O)Cc3ccccc3)cc2)NC(=O)C1 [Compound 245] | 1 to 10 µM
17 | O=C1CC2(CCCC2)CC(=O)N[C@H](Cc2ccc(NC(=O)[C@@H](NC(=O)Cc3ccccc3)C3CCCCC3)cc2)C(=O)NCCCCCCCCN1 [Compound 334] | 1 to 10 µM
18 | O=C1CNC(=O)[C@@H](Cc2ccc(NC(=O)[C@H](Cc3ccccc3Cl)NC(=O)c3cc(F)c(F)cc3F)cc2)NC(=O)CC2(CCCC2)CC(=O)NCCCCCN1 [Compound 329] | 0.1 to 1 µM
19 | O=C1CC2(CCCC2)CC(=O)N[C@H](Cc2ccc(NC(=O)[C@H](Cc3ccccc3Cl)NC(=O)Cc3ccccc3)cc2)C(=O)N[C@@H](CO)C(=O)NCCCCCN1 [Compound 319] | 0.1 to 1 µM
20 | O=C1CNC(=O)[C@@H](Cc2ccc(NC(=O)[C@H](Cc3ccccc3Cl)NC(=O)c3ccc(F)c(F)c3F)cc2)NC(=O)CC2(CCCC2)CC(=O)NCCCCCN1 [Compound 328] | 0.1 to 1 µM
21 | O=C1CC2(CCCC2)CC(=O)N[C@H](Cc2ccc(NC(=O)[C@@H](NC(=O)Cc3ccc(CO)cc3)C3CCCCC3)cc2)C(=O)NCCCCCCCCN1 [Compound 337] | 0.1 to 1 µM

More lines, now with the values ahead:

Row | IC50 | Structure (SMILES)
22 | < 0.1 µM | O=C1CNC(=O)[C@@H](Cc2ccc(NC(=O)[C@H](Cc3ccccc3Cl)NC(=O)Cc3ccc(F)c(F)c3)cc2)NC(=O)CC2(CCCC2)CC(=O)NCCCCCN1 [Compound 298]
23 | < 0.1 µM | O=C1CNC(=O)[C@@H](Cc2ccc(NC(=O)[C@H](Cc3ccccc3Cl)NC(=O)Cc3cccc(O)c3)cc2)NC(=O)CC2(CCCC2)CC(=O)NCCCCCN1 [Compound 217]
24 | < 0.1 µM | O=C1CNC(=O)[C@@H](Cc2ccc(NC(=O)[C@H](Cc3ccccc3Cl)NC(=O)Cc3ccc(F)cc3F)cc2)NC(=O)CC2(CCCC2)CC(=O)NCCCCCN1 [Compound 296]
25 | < 0.1 µM | COC(=O)[C@@H]1CCCCNC(=O)CNC(=O)[C@@H](Cc2ccc(NC(=O)[C@H](Cc3ccccc3Cl)NC(C)=O)cc2)NC(=O)CC2(CCCC2)CC(=O)N1 [Compound 248]
26 | < 0.1 µM | O=C1CNC(=O)[C@@H](Cc2ccc(NC(=O)[C@H](Cc3ccccc3)NC(=O)Cc3ccccc3)cc2)NC(=O)CC2(CCCC2)CC(=O)NCCCCCN1 [Compound 237]
27 | 0.1 to 1 µM | O=C1CNC(=O)[C@@H](Cc2ccc(NC(=O)[C@H](Cc3ccccc3Cl)NC(=O)CN3CCOCC3)cc2)NC(=O)CC2(CCCC2)CC(=O)NCCCCCN1 [Compound 304]
28 | 0.1 to 1 µM | CN1CCCCCNC(=O)CC2(CCCC2)CC(=O)N[C@H](Cc2ccc(NC(=O)[C@@H](NC(=O)Cc3ccc(CO)cc3)C3CCCCC3)cc2)C(=O)NCC1=O [Compound 351]
29 | 0.1 to 1 µM | O=C1CNC(=O)[C@@H](Cc2ccc(NC(=O)[C@H](Cc3ccccc3Cl)NC(=O)c3cc(F)c(F)c(F)c3)cc2)NC(=O)CC2(CCCC2)CC(=O)NCCCCCN1 [Compound 326]
30 | 0.1 to 1 µM | COCC(=O)N[C@@H](Cc1ccccc1Cl)C(=O)Nc1ccc(C[C@H]2NC(=O)CC3(CCCC3)CC(=O)NCCCCCNC(=O)CNC2=O)cc1 [Compound 234]
31 | 0.1 to 1 µM | O=C1CNC(=O)[C@@H](Cc2ccc(NC(=O)[C@H](Cc3ccccc3Cl)NC(=O)CN3CCCCC3)cc2)NC(=O)CC2(CCCC2)CC(=O)NCCCCCN1 [Compound 300]
32 | 0.1 to 1 µM | O=C1CNC(=O)[C@@H](Cc2ccc(NC(=O)[C@H](Cc3ccc(Cl)c(Cl)c3)NC(=O)Cc3ccccc3)cc2)NC(=O)CC2(CCCC2)CC(=O)NCCCCCN1 [Compound 241]
33 | 0.1 to 1 µM | CC(C)(C)OC[C@@H]1NC(=O)[C@@H](Cc2ccc(NC(=O)[C@H](Cc3ccccc3Cl)NC(=O)Cc3ccccc3)cc2)NC(=O)CC2(CCCC2)CC(=O)NCCCCCNC1=O [Compound 320]
34 | 0.1 to 1 µM | CC1(C)CC(=O)NCCCCCNC(=O)CNC(=O)[C@@H](Cc2ccc(NC(=O)[C@H](CC3CCC3)NC(=O)Cc3ccccc3)cc2)NC(=O)C1 [Compound 247]
35 | < 0.1 µM | O=C1CNC(=O)[C@@H](Cc2ccc(NC(=O)[C@H](Cc3ccccc3Cl)NC(=O)c3cncnc3)cc2)NC(=O)CC2(CCCC2)CC(=O)NCCCCCN1 [Compound 327]
36 | < 0.1 µM | O=C1CNC(=O)[C@@H](Cc2ccc(NC(=O)[C@H](CC3CCCCC3)NC(=O)Cc3ccc(O)cc3)cc2)NC(=O)CC2(CCCC2)CC(=O)NCCCCCN1 [Compound 294]
37 | < 0.1 µM | CN1CCCCCNC(=O)CC2(CCCC2)CC(=O)N[C@H](Cc2ccc(NC(=O)[C@H](Cc3ccccc3Cl)NC(=O)Cc3ccccc3)cc2)C(=O)NCC1=O [Compound 281]
38 | < 0.1 µM | O=C1CNC(=O)[C@@H](Cc2ccc(NC(=O)[C@H](Cc3ccsc3)NC(=O)Cc3ccccc3)cc2)NC(=O)CC2(CCCC2)CC(=O)NCCCCCN1 [Compound 229]
39 | < 0.1 µM | O=C1CC2(CCCC2)CC(=O)N[C@H](Cc2ccc(NC(=O)[C@H](Cc3ccccc3Cl)NC(=O)Cc3ccc(O)cc3)cc2)C(=O)N[C@H](Cc2ccccc2)C(=O)NCCCCCN1 [Compound 262]
40 | < 0.1 µM | O=C1CNC(=O)[C@@H](Cc2ccc(NC(=O)[C@H](Cc3ccc(Cl)cc3)NC(=O)Cc3ccccc3)cc2)NC(=O)CC2(CCCC2)CC(=O)NCCCCCN1 [Compound 240]
41 | < 0.1 µM | COC(=O)[C@@H]1CCCCNC(=O)CNC(=O)[C@@H](Cc2ccc(NC(=O)[C@@H](NC(=O)Cc3ccccc3)C3CCCCC3)cc2)NC(=O)CC2(CCCC2)CC(=O)N1 [Compound 282]
42 | < 0.1 µM | COC(=O)[C@@H]1CCCCNC(=O)CNC(=O)[C@@H](Cc2ccc(NC(=O)[C@H](Cc3ccccc3Cl)NC(=O)Cc3ccc(O)cc3)cc2)NC(=O)CC2(CCCC2)CC(=O)N1 [Compound 249]
43 | < 0.1 µM | O=C1CC2(CCCC2)CC(=O)N[C@H](Cc2ccc(NC(=O)[C@H](Cc3ccccc3Cl)NC(=O)Cc3ccccc3)cc2)C(=O)N[C@@H](Cc2ccccc2)C(=O)NCCCCCN1 [Compound 317]
